In patent US12729377B2, “RNAi agents and compositions for inhibiting expression of angiopoietin-like 3 (ANGPTL3), and methods of use” (Arrowhead Pharmaceuticals, Inc., priority 2017, dated 2026):
In the oligonucleotide strings, read from the 5' end, every base follows the letter of its sugar. An asterisk marks phosphorothioate; unmarked linkages are phosphodiester. Other units and linkages are bracketed, terminal groups are in braces. A string of capitals states the bases alone. {NAG37} = tridentate N-acetyl-galactosamine targeting ligand, structure (NAG37)s; [invAb] = inverted abasic unit; m = 2'-O-methyl; f = 2'-fluoro

Legend:
[1] = tested on: ANGPTL3 gene; experiment: Example 4: serum LDL in mice; type: in vivo, C57bl/6 mice
[2] = tested on: ANGPTL3 protein; experiment: Example 6: serum ANGPTL3 protein by ELISA in mice; type: in vivo, C57bl/6 mice; details: for Avg ANGPTL3, normalized to pre-treatment and control: 0.5 mg/kg single SC injection on day 1, serum, n=3
Experimental: To assess the in vivo activity of additional ANGPTL3 RNAi agents that are designed to target position 304 on the ANGPTL3 gene, six- to eight-week-old female C57bl/6 mice were used. Pre-dose serum samples were taken at day −1 after a four hour fast. At day 1, each mouse was given a single subcutaneous administration of 200 μl containing 0.5 mg/kg (mpk) of an ANGPTL3 RNAi agent in D5W (dextrose in 5% water), or control (D5W) with no RNAi agent, according to the dosing groups recited in Table 25.
Each of the RNAi agents included a modified sequence and an N-acetyl-galactosamine-containing targeting ligand conjugated to the 5′ terminal end of the sense strand. (See Tables 3, 4, and 5 for modified sequences and targeting ligand structures). The injections were performed between the skin and muscle (i.e. subcutaneous injections) into the loose skin over the neck and shoulder area. Three (3) mice in each group were tested (n=3). Serum was collected on days 8, 15, 22, 30, and on day 43 for certain groups (i.e., Groups 1, 2, 5, and 10 only). Mice were fasted for four hours prior to each collection. ANGPTL3 protein levels in serum were measured by ELISA assay (R&D Systems), according to the manufacturer's recommendations. Triglycerides, total cholesterol, high-density lipoprotein (HDL), and low-density lipoprotein (LDL) in serum were measured on a Cobas® Integra 400 (Roche Diagnostics), according to the manufacturer's recommendations.
The ANGPTL3 protein levels, triglyceride levels, total cholesterol levels, HDL levels, and LDL levels for each animal were normalized. For normalization, the level of ANGPTL3 protein, triglyceride, HDL, and total cholesterol, respectively, for each animal at a time point, was divided by the pre-treatment level of expression in that animal (in this case at day −1) to determine the ratio of expression “normalized to pre-treatment.” Expression at a specific time point was then normalized to the D5W control group by dividing the “normalized to pre-treatment” ratio for an individual animal by the mean “normalized to pretreatment” ratio of all mice in the D5W control group.

[3] = tested on: ANGPTL3 gene; experiment: Example 9: serum LDL in cynomolgus monkeys; type: in vivo, cynomolgus macaque (Macaca fascicularis); details: 2.0 mg/kg single SC injection day 1, cynos, n=3
Experimental: Additional ANGPTL3 RNAi agents were evaluated in cynomolgus monkeys. On day 1, cynomolgus macaque (Macaca fascicularis) primates (also referred to herein as “cynos”) were administered a single subcutaneous injection of 0.3 mL/kg (approximately 2-3 mL volume, depending on animal mass) containing 2.0 mg/kg of an ANGPTL3 RNAi agent, which included either AD05488, AD05743, AD05775, or AD05841, each formulated in saline. […] ANGPTL3 RNAi agents AD05488, AD05743, and AD05775 included nucleotide sequences designed to target position 304 of the ANGPTL3 gene. ANGPTL3 RNAi agent AD05841 included nucleotide sequences designed to target position 1035 of the ANGPTL3 gene.
Three (3) cynos in each group were tested (n=3). Blood samples were drawn and serum samples were analyzed on days −14 (predose), −7 (predose), 1 (pre-dose), 8, 15, 22, 29, and 35. Cynos were fasted overnight prior to each collection. ANGPTL3 protein levels in serum were measured by ELISA assay (R&D Systems), according to the manufacturer's recommendations. Triglycerides, total cholesterol, high-density lipoprotein (HDL), and low-density lipoprotein (LDL) in serum were measured on a Cobas® Integra 400 (Roche Diagnostics), according to the manufacturer's recommendations.
The ANGPTL3 protein levels, triglyceride levels, total cholesterol levels, HDL levels, and LDL levels for each animal were normalized. For normalization, the level of ANGPTL3 protein, triglyceride, HDL, and total cholesterol, respectively, for each animal at a time point, was divided by the average pre-treatment level of expression in that animal (in this case at days −14, −7, and 1) to determine the ratio of expression “normalized to pre-treatment.”

[4] = tested on: ANGPTL3 protein; experiment: Example 13: serum ANGPTL3 protein in HFCS diet-fed Rhesus monkeys; type: in vivo; details: for Avg ANGPTL3 Protein Normalized to Pre-Treatment (Fasted): 4.0 mg/kg sc on day 1 and day 29
Experimental: ANGPTL3 RNAi agent AD05488 was further evaluated in high-fructose corn syrup (HFCS) diet-fed Rhesus monkeys. Rhesus monkeys were placed on an HFCS diet 37 days prior to dosing. These animals were known to develop increased plasma triglycerides greater than 180 mg/dL on the HFCS diet. On day 1 and again on day 29, four (4) Rhesus monkeys were administered a subcutaneous injection containing 4.0 mg/kg of ANGPTL3 RNAi agent AD05488 formulated in saline (n=4). Two additional Rhesus monkeys were administered normal saline control.
Fasted blood samples were drawn for analysis, and serum samples were analyzed on days-8 (predose), 8, 15, 21, 29, and 36. ANGPTL3 expression levels, triglycerides, total cholesterol, high-density lipoprotein (HDL), and low-density lipoprotein (LDL) in serum were measured on a Cobas® Integra 400 (Roche Diagnostics), according to the manufacturer's recommendations.
The ANGPTL3 protein levels, triglyceride levels, total cholesterol levels, HDL levels, and LDL levels for each animal were normalized. For normalization, the level of ANGPTL3 protein, triglyceride, HDL, and total cholesterol, respectively, for each animal at a time point, was divided by the pre-treatment level of expression in that animal (in this case at day −8) to determine the ratio of expression “normalized to pre-treatment.”

Substance	Avg LDL, normalized to pre-treatment and control ([1]; Day 22, 0.5 mg/kg single SC injection on day 1, n=3)	Avg LDL, normalized to pre-treatment and control ([1]; Day 29, 0.5 mg/kg single SC injection on day 1, n=3)	Avg LDL, normalized to pre-treatment and control ([1]; Day 43, 0.5 mg/kg single SC injection on day 1, n=3)	Avg ANGPTL3, normalized to pre-treatment and control ([2]; Day 8)	Avg ANGPTL3, normalized to pre-treatment and control ([2]; Day 15)	Avg ANGPTL3, normalized to pre-treatment and control ([2]; Day 22)	Avg ANGPTL3, normalized to pre-treatment and control ([2]; Day 30)	Avg ANGPTL3, normalized to pre-treatment and control ([2]; Day 43)	reduction in ANGPTL3 protein levels ([2]; through at least day 22, single 0.5 mg/kg subcutaneous, C57bl/6 mice)	Average LDL Normalized to Pre-Treatment ([3]; Day 8)	Average LDL Normalized to Pre-Treatment ([3]; Day 15)	Average LDL Normalized to Pre-Treatment ([3]; Day 22)	Average LDL Normalized to Pre-Treatment ([3]; Day 29)	Average LDL Normalized to Pre-Treatment ([3]; Day 35)	Avg ANGPTL3 Protein Normalized to Pre-Treatment (Fasted) ([4]; Day 8)	Avg ANGPTL3 Protein Normalized to Pre-Treatment (Fasted) ([4]; Day 15)	Avg ANGPTL3 Protein Normalized to Pre-Treatment (Fasted) ([4]; Day 21)	Avg ANGPTL3 Protein Normalized to Pre-Treatment (Fasted) ([4]; Day 29)	Avg ANGPTL3 Protein Normalized to Pre-Treatment (Fasted) ([4]; Day 36)	reduction in ANGPTL3 protein compared to pre-treatment ([4]; each of the measured time points, 4.0 mg/kg on days 1 and 29, HFCS diet-fed Rhesus monkeys)
AD05308: RNAi agent duplex: antisense AM07003-AS, sense AM07002-SS (chain 1 mU*fG*mU*fUmGfAmAfUmUfAmAfUmGfUmCfCmAfUmGfG*mA; chain 2 {NAG37}*[invAb]*mUmCmCmAmUmGmGmAfCfAfUmUmAmAmUmUmCmAmAmCmA*[invAb])	1.209	1.251	1.375																	
AD05488: RNAi agent duplex: antisense AM07235-AS, sense AM07234-SS (antisense mU*fA*mC*fUmGfAmUfCmAfAmAfUmAfUmGfUmUfGmAfG*mC; sense {NAG37}*[invAb]*mGmCmUmCmAmAmCmAfUfAfUmUmUmGmAmUmCmAmGmUmA*[invAb])				0.221	0.272	0.254	0.381	0.475	substantial reduction	0.971	0.913	0.949	0.853	0.845	0.229	0.154	0.116	0.114	0.064	significant reduction
